# Assay results reported in patent US20100122362A1, “CELLS EXPRESSING ALPHA-SYNUCLEIN AND USES THEREFOR” (priority 2006, published 2010).
# Experiments:
# TS217 cells [1] = tested on: TS217 cells
# Experimental: To determine the effect of overexpression of wild-type alpha-synuclein on cell viability using the stable, inducible system, TS217 cells were treated with 0.1 μg/mL tetracycline for three to six days to induce expression of alpha-synuclein. The relative viability of the cells was assessed at one day intervals (day 3, day 4, day 5, and day 6) by measuring the cellular ATP level in cell lysates using a ViaLight® Plus Bioassay kit (Cambrex, Rockland, Me.). Relative cell viability was calculated as the ratio of induced cells to control cells (cells not treated with tetracycline), as an indication of alpha-synuclein-induced cytotoxicity (see FIG. 3).
# To determine whether the effect of tetracycline on cell viability was concentration-dependent, TS217 cells grown in 96 well plates were incubated with different concentrations of tetracycline for six days. Following treatment, each of the experimental cell groups were lysed and the cellular ATP measured as described above. Media with the vehicle alone (no tetracycline) served as control (FIG. 5). […]
# TS217 cells [2] = assay: Calcein AM staining of live cells; assay type: cell-based; settings: Homo sapiens, 120 h; 0.1 μg/mL tetracycline, 5 days; read-out: number of viable cells decreased (calcein-positive cells)
# Experimental: The cytotoxicity of alpha-synuclein overexpression in TS217 cells was also assessed using the membrane-permeable dye, calcein AM. TS217 cells were plated on glass tissue culture chamber slides coated with poly-L-lysine and cultured in the absence (Control) or presence (Induced) of 0.1 μg/mL tetracycline for 5 days to induce alpha-synuclein expression. Cells were treated with 2 μM calcein AM and the fluorescence of enzyme-activated calcein AM (in live cells) was visualized using a fluorescent microscope (Olympus, Center Valley, Pa.) fitted with a digital camera controlled by the Metamorph program (Universal Imaging, West Chester, Pa.). Calcein-positive cells were quantitated using Metamorph software (Universal Imaging, West Chester, Pa.) (FIG. 4A).
# TS217 cells [3] = assay: GM130 immunostaining of intact Golgi; assay type: cell-based, human; settings: 0.1 μg/mL tetracycline, six day induction
# Experimental: TS217 cells were plated on glass tissue culture chamber slides coated with poly-L-lysine and incubated for six days in the absence (Control) or presence of 0.1 μg/mL tetracycline (Induced) to induce alpha-synuclein expression. Following treatment, cells were fixed with 4% paraformaldehyde supplemented with 4% sucrose in phosphate-buffered saline, permeabilized with 0.2% triton in PBS, and stained with antibodies specific for the cis-Golgi tethering protein GM130 (FIG. 6A). The number of cells containing intact Golgi was reduced by almost 80% following the six day induction of alpha-synuclein (FIG. 6B).
smiles,measurement,setting,value
"CC(C)(C)n1nc(-c2ccc(Cl)cc2)c2c(N)ncnc21 [Cmp J, 1-t-Butyl-3-(4-chloro-phenyl)-1H-pyrazolo[3,4-d]pyrimidin-4-ylamine]","Relative viability (ATP, ratio of induced to control), effect on alpha-synuclein-induced toxicity","TS217 cells [1]; 0.08, 0.15, 0.3 μM compound, with tetracycline induction for 5 days, FIG. 9",rescue of alpha-synuclein-induced toxicity
CN(C)[C@@H]1C(O)=C(C(N)=O)C(=O)[C@@]2(O)C(O)=C3C(=O)c4c(O)cccc4[C@@](C)(O)[C@H]3C[C@@H]12 [tetracycline],cytotoxicity at 0.1 µg/mL,TS217 cells [2],~60%
same,number of cells containing intact Golgi reduced,TS217 cells [3],~80%
same,Relative cell viability decreased (ratio of induced cells to control cells),"TS217 cells [1]; 0.1 μg/mL tetracycline, from day 3 to day 6, no other toxicity-inducing agents",over 50%
